Assay results from paper doi:10.1101/2022.02.04.479214v1 (biorxiv, 2022).

Key:
Experiment in all cases: CYP activity inhibition in microsomes
Assay type in all cases: biochemical
Conditions in all cases: microsomes with NADPH; direct inhibition
CYP2D6 = CYP2D6 (Homo sapiens, UniProt P10635)
CYP2C9 = CYP2C9 (Homo sapiens, UniProt P11712)
CYP3A4 = CYP3A4 (Homo sapiens, UniProt P08684)
CYP1A2 = molecular target: T1, CYP1A2 (Homo sapiens, UniProt P05177)
T1 sequence (P05177 2-516): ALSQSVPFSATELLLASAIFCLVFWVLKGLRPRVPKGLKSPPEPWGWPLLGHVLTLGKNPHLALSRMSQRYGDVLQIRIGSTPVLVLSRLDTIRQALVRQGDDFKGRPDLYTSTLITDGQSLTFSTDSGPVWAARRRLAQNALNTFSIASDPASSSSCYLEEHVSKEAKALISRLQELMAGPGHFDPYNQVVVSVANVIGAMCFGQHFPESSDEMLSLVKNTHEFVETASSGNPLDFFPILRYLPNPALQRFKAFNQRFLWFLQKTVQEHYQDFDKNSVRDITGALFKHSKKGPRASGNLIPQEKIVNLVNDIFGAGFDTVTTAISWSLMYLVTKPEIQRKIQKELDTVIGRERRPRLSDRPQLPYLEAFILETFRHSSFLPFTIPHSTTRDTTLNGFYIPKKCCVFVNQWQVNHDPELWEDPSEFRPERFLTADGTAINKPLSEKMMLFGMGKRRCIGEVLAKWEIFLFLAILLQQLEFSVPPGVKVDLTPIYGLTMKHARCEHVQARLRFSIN

CYP2C19 = CYP2C19 (Homo sapiens, UniProt P33261)
CYP2C19, sequence (P33261 whole entry): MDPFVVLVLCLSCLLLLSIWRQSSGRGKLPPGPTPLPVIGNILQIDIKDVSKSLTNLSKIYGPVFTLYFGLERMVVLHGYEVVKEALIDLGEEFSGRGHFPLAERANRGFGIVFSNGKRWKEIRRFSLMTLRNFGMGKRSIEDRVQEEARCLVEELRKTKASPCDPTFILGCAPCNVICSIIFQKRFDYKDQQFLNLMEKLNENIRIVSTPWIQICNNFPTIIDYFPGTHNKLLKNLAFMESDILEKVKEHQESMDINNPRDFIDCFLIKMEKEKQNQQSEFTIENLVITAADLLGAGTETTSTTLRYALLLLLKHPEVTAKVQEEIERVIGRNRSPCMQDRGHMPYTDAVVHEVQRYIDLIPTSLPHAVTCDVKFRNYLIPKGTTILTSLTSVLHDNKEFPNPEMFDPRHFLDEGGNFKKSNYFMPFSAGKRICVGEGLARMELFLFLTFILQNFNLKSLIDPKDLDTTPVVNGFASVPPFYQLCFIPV

Measured: IC50

CYP2D6, sequence (P10635 whole entry): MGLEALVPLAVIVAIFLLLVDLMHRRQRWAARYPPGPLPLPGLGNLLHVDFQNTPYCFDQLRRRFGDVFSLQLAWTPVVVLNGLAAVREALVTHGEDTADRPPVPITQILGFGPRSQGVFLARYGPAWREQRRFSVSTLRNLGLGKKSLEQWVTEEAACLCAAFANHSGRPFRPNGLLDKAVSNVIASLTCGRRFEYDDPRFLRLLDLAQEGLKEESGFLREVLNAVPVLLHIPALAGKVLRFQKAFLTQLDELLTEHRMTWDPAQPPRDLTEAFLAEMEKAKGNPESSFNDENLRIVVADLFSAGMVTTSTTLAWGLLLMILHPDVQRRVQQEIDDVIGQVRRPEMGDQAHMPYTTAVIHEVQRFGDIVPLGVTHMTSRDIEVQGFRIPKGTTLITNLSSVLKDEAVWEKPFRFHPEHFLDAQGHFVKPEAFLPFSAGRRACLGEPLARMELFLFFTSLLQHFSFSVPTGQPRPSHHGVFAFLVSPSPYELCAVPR
CYP3A4, sequence (P08684 2-503): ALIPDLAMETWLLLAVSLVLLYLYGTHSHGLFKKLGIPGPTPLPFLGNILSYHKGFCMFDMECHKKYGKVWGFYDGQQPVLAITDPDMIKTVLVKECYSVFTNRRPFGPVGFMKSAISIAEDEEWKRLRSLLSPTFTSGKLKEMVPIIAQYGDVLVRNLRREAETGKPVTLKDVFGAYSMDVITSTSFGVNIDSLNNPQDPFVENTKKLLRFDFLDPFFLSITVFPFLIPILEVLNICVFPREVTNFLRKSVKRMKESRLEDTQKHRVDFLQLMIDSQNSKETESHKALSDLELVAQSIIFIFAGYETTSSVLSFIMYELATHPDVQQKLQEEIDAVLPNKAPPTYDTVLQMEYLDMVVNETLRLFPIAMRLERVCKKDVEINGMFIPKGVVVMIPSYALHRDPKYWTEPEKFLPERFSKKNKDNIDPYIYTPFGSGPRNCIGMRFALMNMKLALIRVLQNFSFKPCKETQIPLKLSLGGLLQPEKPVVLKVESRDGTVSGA
CYP2C9, sequence (P11712 whole entry): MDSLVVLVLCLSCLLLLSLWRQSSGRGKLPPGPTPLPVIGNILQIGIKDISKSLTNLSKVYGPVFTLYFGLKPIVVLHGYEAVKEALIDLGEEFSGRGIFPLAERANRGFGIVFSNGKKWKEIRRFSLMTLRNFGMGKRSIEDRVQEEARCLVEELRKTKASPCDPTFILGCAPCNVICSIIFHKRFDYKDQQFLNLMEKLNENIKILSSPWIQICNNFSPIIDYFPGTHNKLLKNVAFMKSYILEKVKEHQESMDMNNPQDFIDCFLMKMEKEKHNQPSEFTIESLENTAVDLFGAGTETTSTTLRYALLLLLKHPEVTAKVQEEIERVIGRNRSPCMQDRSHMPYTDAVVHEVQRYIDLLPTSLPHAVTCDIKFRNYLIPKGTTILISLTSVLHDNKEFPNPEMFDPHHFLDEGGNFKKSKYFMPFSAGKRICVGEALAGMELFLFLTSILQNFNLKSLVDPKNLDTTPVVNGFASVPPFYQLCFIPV

Cc1cccc(OC2CCN(Cc3cc(=O)[nH]c(=O)[nH]3)CC2)c1C [GSK2556286]
> 25 µM: all assays above
